Results published in patent publication US20050282818A1, “Ubiquitin ligase inhibitors” (Rigel Pharmaceuticals, Inc., priority 2004, published 2005).

Key:
TRAF6/Uev1A/Ubc13 = biological target: T1, TRAF6/Uev1A/Ubc13 (Homo sapiens, UniProt Q9Y4K3); test: TRAF6/Uev1A/Ubc13 plate-based ubiquitin ligase assay; type: biochemical
T1 sequence (Q9Y4K3 1-522): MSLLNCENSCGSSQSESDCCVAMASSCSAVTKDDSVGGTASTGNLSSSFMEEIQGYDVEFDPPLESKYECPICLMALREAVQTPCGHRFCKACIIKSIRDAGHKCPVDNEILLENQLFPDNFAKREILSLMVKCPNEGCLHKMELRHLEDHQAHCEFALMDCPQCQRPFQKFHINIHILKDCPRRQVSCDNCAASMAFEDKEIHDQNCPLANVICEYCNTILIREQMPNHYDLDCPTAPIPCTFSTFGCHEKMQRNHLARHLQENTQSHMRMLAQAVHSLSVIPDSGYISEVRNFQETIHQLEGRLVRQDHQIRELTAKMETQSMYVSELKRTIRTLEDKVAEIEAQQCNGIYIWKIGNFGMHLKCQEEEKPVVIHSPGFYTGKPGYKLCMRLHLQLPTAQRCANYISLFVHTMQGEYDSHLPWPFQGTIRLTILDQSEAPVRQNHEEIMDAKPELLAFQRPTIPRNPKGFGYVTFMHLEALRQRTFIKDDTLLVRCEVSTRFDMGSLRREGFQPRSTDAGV
In short: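 Ligase activity was read as luminescence from anti-Flag/HRP detection of Flag-ubiquitin bound to casein-blocked Ni-plates alongside His-ubiquitin after a 1 h room-temperature reaction. Buffer: 62.5 mM Tris pH 7.5, 6.25 mM MgCl2, 1.0 mM DTT, 2 μM ATP; E1, Uev1a/Ubc13 and TRAF6 added last to start. IC50s derived across compound concentrations.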

ROC1/CUL1 = biological target: T2, ROC1/CUL1 (Homo sapiens, UniProt P62877+Q13616); test: ROC1/CUL1 ubiquitin ligase assay (SCF assay); type: biochemical
T2 construct: made in house
T2 sequence (P62877 whole entry): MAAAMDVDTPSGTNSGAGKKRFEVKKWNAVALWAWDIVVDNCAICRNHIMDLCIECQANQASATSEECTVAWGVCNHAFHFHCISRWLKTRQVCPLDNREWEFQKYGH
T2 sequence (Q13616 whole entry): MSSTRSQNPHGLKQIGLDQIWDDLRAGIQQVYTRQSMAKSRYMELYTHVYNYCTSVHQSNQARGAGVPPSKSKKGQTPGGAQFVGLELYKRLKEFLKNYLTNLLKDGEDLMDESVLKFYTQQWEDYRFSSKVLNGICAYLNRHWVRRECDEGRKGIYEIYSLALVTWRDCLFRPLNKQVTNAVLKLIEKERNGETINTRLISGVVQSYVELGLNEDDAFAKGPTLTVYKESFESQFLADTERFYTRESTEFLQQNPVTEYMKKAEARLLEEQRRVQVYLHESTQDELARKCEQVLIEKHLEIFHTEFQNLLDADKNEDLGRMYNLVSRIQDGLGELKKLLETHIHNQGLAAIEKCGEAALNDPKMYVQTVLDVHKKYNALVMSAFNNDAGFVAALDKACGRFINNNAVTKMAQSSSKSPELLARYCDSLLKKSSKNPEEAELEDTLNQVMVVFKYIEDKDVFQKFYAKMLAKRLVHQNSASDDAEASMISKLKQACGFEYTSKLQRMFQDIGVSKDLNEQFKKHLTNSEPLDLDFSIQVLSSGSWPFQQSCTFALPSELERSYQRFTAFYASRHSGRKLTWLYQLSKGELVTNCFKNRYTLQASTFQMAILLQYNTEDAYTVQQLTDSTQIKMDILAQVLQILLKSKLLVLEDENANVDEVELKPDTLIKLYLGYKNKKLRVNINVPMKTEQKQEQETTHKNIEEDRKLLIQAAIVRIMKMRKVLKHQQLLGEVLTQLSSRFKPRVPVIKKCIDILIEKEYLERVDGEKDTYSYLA
Description: Inhibition of ubiquitin ligase activity of E1+E2+E3 was measured using the protocol as described in WO 01/75145 with E3 as the ROC1/CUL1, ROC1/CUL2, or ROC2/CUL5 complex.
The wells of nickel-substrate 96-well plates (Pierce Chemical) are blocked with 100 μl of 1 casein/phosphate buffered saline (PBS) for 1 hour at room temperature, then washed with 200 μl of PBST (0.1% Tween-20 in PBS) 3 times. To each well is added the following Flag-ubiquitin (see above) reaction solution: 62.5 mM Tris pH 7.5, 6.25 mm MgCl2, 0.75 mM DTT, 2.5 mM ATP, 2.5 mM NaF1, 2.5 nM Okadaic acid, 100 ng Flag-ubiquitin (made as described above).
The buffer solution is brought to a final volume of 80 μl with Milipore-filtered water, followed by the addition of 10 μl DMSO.
To the above solution is then added 10 μl of ubiquitination enzymes in 20 mM Tris buffer, pH 7.5, and 5% glycerol. E2-Ubch5c and E3-His ROC1/Cul1, ROC1/CUL2, and ROC2/CUL5 are made as described in WO 01/75145. E1 is obtained commercially (Affiniti Research Products, Exeter, U. K.). The following amounts of each enzyme are used for these assays: 5 ng/well of E1; […] E2; and 100 ng/well His-E3. Varying amounts of compounds according to the invention are added and the reaction allowed to proceed at room temperature for 1 hour.
Following the ubiquitination reaction, the wells are washed with 200 μl of PBST 3 times. For measurement of the enzyme-bound ubiquitin, 100 gel of Mouse anti-Flag (1:10,000) and anti-Mouse Ig-HRP (1:15, 000) in PBST are added to each well and allowed to incubate at room temperature for 1 hour. The wells are then washed with 200 μl of PBST 3 times, followed by the addition of 100 μl of luminol substrate (1/5 dilution). Luminescence for each well is then measured using a fluorimeter.
Table 2 below illustrates the inhibitory activity of the compounds of the invention determined by the TRAF6/Uev1A/Ubc13 assay as well as in the ICAM, APC and the ROC1/CUL1 Ubiquitin Ligase Assay (SCF Assay). The IC50 values were determined using a various concentrations of the compounds.

A549 cells = test: Cell proliferation PAD assay, A549; type: cell-based; conditions: Homo sapiens, 3pt, 48 hours, read-out: A549 3pt
In short: (§1)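 Cells were seeded at 2,000 per well and dosed 24 h later, in duplicate, with 6.3-fold dilution series from a 10 mM master stock diluted 500-fold into wells. After 48 h at 37 °C, 5% CO2, cells were formamide-fixed, DAPI-stained and imaged to count live, apoptotic and dead cells.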

H1299 cells = test: Cell proliferation PAD assay, H1299; type: cell-based; conditions: Homo sapiens, NCI-H1299, 3pt, 48 hours, read-out: H1299 3pt
In short: as §1

| IC50 (TRAF6/Uev1A/Ubc13) | IC50 (ROC1/CUL1) | IC50 (A549 cells) | IC50 (H1299 cells) | Compound |
| --- | --- | --- | --- | --- |
| ≥ 20 µM | ≥ 20 µM |  |  | CC(=O)OCCCNc1cc(Sc2nnc(C)s2)c2nonc2c1[N+](=O)[O-] [compound 133, 3-({7-[(5-methyl-1,3,4-thiadiazol-2-yl)thio]-4-nitro-2,1,3-benzoxadiazol-5-yl}amino)propyl acetate] |
| 1 to 20 µM | ≥ 20 µM | 1 to 20 µM | 1 to 20 µM | N#Cc1ccc(N2CCN(S(=O)(=O)c3c(Sc4cccc5cccnc45)ccc4nonc34)CC2)nc1 [compound 212, 6-(4-{[5-(quinolin-8-ylthio)-2,1,3-benzoxadiazol-4-yl]sulfonyl}piperazin-1-yl)nicotinonitrile] |
| ≥ 20 µM | ≥ 20 µM |  |  | CN1CCN(S(=O)(=O)c2ccc(Sc3ccc(O)cc3)c3nonc23)CC1 [compound 266, 4-({7-[(4-methylpiperazin-1-yl)sulfonyl]-2,1,3-benzoxadiazol-4-yl}thio)phenol] |
| ≥ 20 µM | ≥ 20 µM |  |  | O=S(=O)(c1ccc(Sc2ccc3ccccc3n2)c2nonc12)N1CCC(O)(c2ccc(Cl)cc2)CC1 [compound 485, 4-(4-chlorophenyl)-1-({7-(quinolin-2ylthio)-2,1,3-benzoxadiazol-4-yl}sulfonyl)piperidin-4-ol] |
| ≥ 20 µM | ≥ 20 µM |  |  | CC(=O)OCCCNc1cc(SC2CCCCC2)c2nonc2c1[N+](=O)[O-] [compound 135, 3-{[7-(cyclohexylthio)-4-nitro-2,1,3-benzoxadiazol-5-yl]amino}propyl acetate] |
| 1 to 20 µM | ≥ 20 µM |  |  | CC1CN(S(=O)(=O)c2c(Sc3cccc4cccnc34)ccc3nonc23)CC(C)O1 (stereo not shown) [compound 216, 8-({4-[(2,6-dimethylmorpholin-4-yl)sulfonyl]-2,1,3-benzoxadiazol-5-yl}thio)quinoline] |
| ≥ 20 µM | ≥ 20 µM |  |  | CCCSc1cc(NCCCOC(C)=O)c([N+](=O)[O-])c2nonc12 [compound 134, 4-{[4-nitro-7-(propylthio)-2,1,3-benzoxadiazol-5-yl]amino}propyl acetate] |
| < 1 µM | ≥ 20 µM | ≥ 20 µM | ≥ 20 µM | O=S(=O)(c1ccc(Sc2ccc(O)cc2)c2nonc12)N1CCC(O)(c2ccc(Cl)cc2)CC1 [compound 228, 4-(4-chlorophenyl)-1-({7-[(4-hydroxyphenyl)thio]-2,1,3-benzoxadiazol-4-yl}sulfonyl)piperidin-4-ol] |
| ≥ 20 µM | ≥ 20 µM |  |  | CC(=O)OCCCNc1cc(SCc2ccco2)c2nonc2c1[N+](=O)[O-] [compound 136, 3-({7-[(2-furylmethyl)thio]-4-nitro-2,1,3-benzoxadiazol-5-yl}amino)propyl acetate] |
| ≥ 20 µM | ≥ 20 µM |  |  | O=S(=O)(Nc1ccc(F)c(F)c1)c1ccc(Nc2ccc(F)c(F)c2)c2nonc12 [compound 264, N-(3,4-difluorophenyl)-7-[(3,4-difluorophenyl)amino]-2,1,3-benzoxadiazole-4-sulfonamide] |
| ≥ 20 µM | ≥ 20 µM | ≥ 20 µM | 1 to 20 µM | N#Cc1ccc(N2CCN(c3ccc4nonc4c3S(=O)(=O)N3CCN(c4ccc(C#N)cn4)CC3)CC2)nc1 [compound 210, 6-[4-({5-[4-(5-cyanopyridin-2-yl)piperazin-1-yl]-2,1,3-benzoxadiazol-4-yl}sulfonyl)piperazin-1-yl]nicotinonitrile] |
| 1 to 20 µM | ≥ 20 µM | 1 to 20 µM | 1 to 20 µM | CC1CC(C)CN(S(=O)(=O)c2ccc(Sc3cccc4cccnc34)c3nonc23)C1 (stereo not shown) [compound 197, 8-({7-[(3,5-dimethylpipendin-1-yl)sulfonyl]-2,1,3-benzoxadiazol-4-yl}thio)quinoline] |
| ≥ 20 µM | ≥ 20 µM |  |  | COC(=O)c1ccc(NS(=O)(=O)c2ccc(Sc3ccncc3)c3nonc23)cc1 [compound 256, methyl 4-({[7-(pyridin-4-ylthio)-2,1,3-benzoxadiazol-4-yl]sulfonyl}amino)benzoate] |
| 1 to 20 µM | ≥ 20 µM | ≥ 20 µM | 1 to 20 µM | O=[N+]([O-])c1ccc(Nc2ccc3[nH]ncc3c2)c2nonc12 [compound 222, N-1H-indazol-5-yl-7-nitro-2,1,3-benzoxadiazol-4-amine] |
| ≥ 20 µM | ≥ 20 µM |  |  | CN1CCN(S(=O)(=O)c2ccc(Sc3cccc4ccccc34)c3nonc23)CC1 [compound 267, 4-[(4-methylpiperazin-1-yl)sulfonyl]-7-(1-naphthylthio)-2,1,3-benzoxadiazole] |
| 1 to 20 µM | ≥ 20 µM | ≥ 20 µM | ≥ 20 µM | Cc1cccc(N2CCN(S(=O)(=O)c3ccc(Sc4cccc5cccnc45)c4nonc34)CC2)n1 [compound 196, 8-[(7-{[4-(6-methylpyndin-2-yl)piperazin-1-yl]sulfonyl}-2,1,3-benzoxadiazol-4-yl)thio]quinoline] |
| 1 to 20 µM | 1 to 20 µM |  |  | O=C(Nc1ccc(N2CCN(c3ncc(C(F)(F)F)cc3Cl)CC2)c2nonc12)c1cccs1 [compound 281, N-(7-{4-[3-chloro-5-(trifluoromethyl)pyridin-2-yl]piperazin-1-yl}-2,1,3-benzoxadiazol-4-yl)thiophene-2-carboxamide] |
| ≥ 20 µM | ≥ 20 µM | ≥ 20 µM | ≥ 20 µM | O=S(=O)(c1cccc2nsnc12)N1CCC2(CC1)OCc1ccccc12 [compound 257, 1′-(2,1,3-benzothiadiazol-4-ylsulfonyl)-3H-spiro[2-benzofiiran-1,4′-piperidine]] |
| 1 to 20 µM | ≥ 20 µM |  |  | O=[N+]([O-])c1ccc(Nc2ccc3cn[nH]c3c2)c2nonc12 [compound 223, N-1H-indazol-6-yl-7-nitro-2,1,3-benzoxadiazol-4-amine] |
| ≥ 20 µM | ≥ 20 µM |  |  | CCOC(=O)CSc1cc(NCCCOC(C)=O)c([N+](=O)[O-])c2nonc12 [compound 137, ethyl [(6-{[3-(acetyloxy)propyl]amino}-7-nitro-2,1,3-benzoxadiazol-4-yl)thio]acetate] |
| ≥ 20 µM | ≥ 20 µM |  |  | COc1ccccc1Sc1ccc(S(=O)(=O)N2CCN(C)CC2)c2nonc12 [compound 270, 4-[(2-methoxyphenyl)thio]-7-[(4-methylpiperazin-1-yl)sulfonyl]-2,1,3-benzoxadiazole] |

| Compound | IC50 (TRAF6/Uev1A/Ubc13) | IC50 (ROC1/CUL1) | IC50 (A549 cells) | IC50 (H1299 cells) |
| --- | --- | --- | --- | --- |
| O=[N+]([O-])c1ccc(N2CCC(Sc3ccccn3)CC2)c2nonc12 [compound 288, 4-nitro-7-[4-(pyridin-2-ylthio)piperidin-1-yl]-2,1,3-benzoxadiazole] | ≥ 20 µM | ≥ 20 µM |  |  |
| O=[N+]([O-])c1ccc(N2CCC(Oc3ccccn3)CC2)c2nonc12 [compound 287, 4-nitro-7-[4-(pyridin-2-yloxy)piperidin-1-yl]-2,1,3-benzoxadiazole] | ≥ 20 µM | ≥ 20 µM |  |  |
| O=[N+]([O-])c1ccc(N2CCC3(CC2)OCc2ccccc23)c2nonc12 [compound 284, 1′-(7-nitro-2,1,3-benzoxadiazol-4-yl)-3H-spiro[2-benzofuran-1,4′-piperidine]] | 1 to 20 µM | ≥ 20 µM | ≥ 20 µM | ≥ 20 µM |
